Assay results as given in publication PMC10057977, “Use of In Vivo Imaging and Physiologically-Based Kinetic Modelling to Predict Hepatic Transporter Mediated Drug–Drug Interactions in Rats” (Pharmaceutics, 2023).
Each block holds one molecule with its values, some of them ahead of it.

Columns and labels:
rNtcp = tested on: rNtcp; design: method as in PMID 16258024, PMID 29891589, PMID 21415249, PMID 11883641, PMID 15550721; conditions: in vitro; cited from earlier work
rMrp2 = rMrp2 (Rattus norvegicus, UniProt Q63120); design: method as in PMID 16258024, PMID 29891589, PMID 21415249, PMID 11883641, PMID 15550721; conditions: in vitro; NI = reported not to inhibit the transporter; cited from earlier work
Chain of rMrp2 (Q63120 whole entry): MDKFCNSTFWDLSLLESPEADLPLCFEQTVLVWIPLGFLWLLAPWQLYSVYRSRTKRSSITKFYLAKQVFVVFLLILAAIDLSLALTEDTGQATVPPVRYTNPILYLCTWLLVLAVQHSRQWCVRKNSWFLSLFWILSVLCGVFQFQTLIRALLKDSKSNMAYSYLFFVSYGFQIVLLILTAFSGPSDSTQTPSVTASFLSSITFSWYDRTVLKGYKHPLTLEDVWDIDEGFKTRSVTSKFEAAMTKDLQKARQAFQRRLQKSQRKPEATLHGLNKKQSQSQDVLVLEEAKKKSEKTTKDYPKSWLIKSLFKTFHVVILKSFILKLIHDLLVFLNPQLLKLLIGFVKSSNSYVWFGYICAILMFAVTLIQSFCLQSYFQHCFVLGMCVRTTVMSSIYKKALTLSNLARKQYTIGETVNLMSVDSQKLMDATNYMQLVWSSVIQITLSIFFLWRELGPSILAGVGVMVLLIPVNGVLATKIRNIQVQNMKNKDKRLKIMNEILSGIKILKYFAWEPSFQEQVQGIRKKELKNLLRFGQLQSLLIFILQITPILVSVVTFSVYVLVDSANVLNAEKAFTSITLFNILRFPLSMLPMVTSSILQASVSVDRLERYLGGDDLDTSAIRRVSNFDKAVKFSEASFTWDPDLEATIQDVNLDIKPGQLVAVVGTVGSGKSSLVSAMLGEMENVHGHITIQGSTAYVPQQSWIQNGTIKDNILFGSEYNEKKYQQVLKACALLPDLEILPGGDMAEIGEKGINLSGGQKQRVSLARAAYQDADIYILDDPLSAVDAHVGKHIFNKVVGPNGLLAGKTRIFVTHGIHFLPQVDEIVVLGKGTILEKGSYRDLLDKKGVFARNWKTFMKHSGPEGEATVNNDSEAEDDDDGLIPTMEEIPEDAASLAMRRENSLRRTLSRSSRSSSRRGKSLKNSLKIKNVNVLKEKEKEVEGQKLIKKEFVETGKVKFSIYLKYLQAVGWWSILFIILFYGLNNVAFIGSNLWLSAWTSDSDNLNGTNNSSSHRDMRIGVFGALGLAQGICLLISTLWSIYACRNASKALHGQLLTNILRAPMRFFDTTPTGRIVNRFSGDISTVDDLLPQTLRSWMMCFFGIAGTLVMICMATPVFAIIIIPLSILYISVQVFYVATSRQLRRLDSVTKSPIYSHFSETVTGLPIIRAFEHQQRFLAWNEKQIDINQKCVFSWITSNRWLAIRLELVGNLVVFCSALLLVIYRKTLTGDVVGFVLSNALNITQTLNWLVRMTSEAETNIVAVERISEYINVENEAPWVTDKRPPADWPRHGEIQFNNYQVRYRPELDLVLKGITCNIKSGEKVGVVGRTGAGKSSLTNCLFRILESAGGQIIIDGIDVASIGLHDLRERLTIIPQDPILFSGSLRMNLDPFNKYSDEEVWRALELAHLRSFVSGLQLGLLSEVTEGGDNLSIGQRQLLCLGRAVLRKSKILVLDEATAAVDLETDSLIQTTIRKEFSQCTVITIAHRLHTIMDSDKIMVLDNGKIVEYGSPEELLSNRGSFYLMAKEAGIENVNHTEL

OATP1B = tested on: OATP1B; design: method as in supplement [18]; conditions: plasma AUC ratio; ref supplement [18]; cited from earlier work
NTCP = tested on: NTCP; design: method as in earlier work; conditions: in vitro; ref 30,43-55 and in-house data from Merck & Co.; cited from earlier work
[1] = design: method as in supplement [33]; conditions: clinical; ref supplement [33]; cited from earlier work
rOatp1a4 = conditions: in vitro, cited from earlier work
[2] = Gadoxetate PBPK model transport parameters; design: species or system rat
Source text: A previously developed reduced PBPK model of gadoxetate was used in the current study. The PBPK model (Figure 1) is composed of seven compartments: blood, spleen, splanchnic organs, liver interstitial space, hepatocytes, rest of the body (ROB) vascular, and extravascular space. In the ROB compartment, muscles, fat, bones, and skin, among others, are represented.
A permeability-limited liver model was applied to describe the gadoxetate active uptake into the hepatocytes, as per Equation (1). (1) Vliv,extrdcliv,extr/dt=inputsplan+inputart−Qhcliv,extr/Kliv, extr−b−CLuptake· cliv,extr−CLpassive(cliv,extr−fu,liv, cell cliv,cell)Vliv,celldcliv,cell/dt=CLuptake cliv,extr+CLpassive(cliv,extr−fu,liv, cell cliv,cell)−CLbiliary fu,liv,cell cliv,cell […]
cliv,extr , cliv,cell [μmol/L] and Vliv,extr , Vliv,int [L] are the gadoxetate concentrations ( c ) and volumes ( V ) of the liver extracellular space and hepatocytes, respectively. […] Details of the model development, relations between concentrations in PBPK compartments and measured ΔR1 , parameters identification, and performance were described previously. […]

[3] = in vivo; cited from earlier work

Structure (SMILES): C=C[C@@H]1C[C@]1(NC(=O)[C@@H]1C[C@@H](Oc2ncc(OC)c3ccc(Cl)cc23)CN1C(=O)[C@@H](NC(=O)OC(C)(C)C)C(C)(C)C)C(=O)NS(=O)(=O)C1CC1 [Asunaprevir]
IC50 (rNtcp): 0.6 µM
IC50 (rMrp2): 11 µM
AUCR of rosuvastatin (presence vs absence of inhibitor) (OATP1B): < 2 fold

Structure (SMILES): COc1ccccc1Oc1c(NS(=O)(=O)c2ccc(C(C)(C)C)cc2)nc(-c2ncccn2)nc1OCCO [Bosentan]
IC50 (rNtcp): 0.4 µM
IC50 (NTCP): 18 µM
treated patients with mild liver dysfunction [1]: about 10%

Structure (SMILES): CO[C@H]1/C=C/O[C@@]2(C)Oc3c(C)c(O)c4c(O)c(c(/C=N/N5CCN(C)CC5)c(O)c4c3C2=O)NC(=O)/C(C)=C\C=C\[C@H](C)[C@H](O)[C@@H](C)[C@@H](O)[C@@H](C)[C@H](OC(C)=O)[C@@H]1C [Rifampicin]
IC50 (rMrp2): 20 to 53 µM
IC50 (NTCP): 277 µM
IC50 (rOatp1a4; read-out: IC50 (µM) rOatp1a4): 1.3 µM
Ki (rOatp1a4; read-out: Ki (µM) rOatp1a4): 2.9 µM

CLbiliary, new value in unified units ([2]; total concentration in hepatocytes): 0.756 mL/min
CLuptake, new value in unified units ([2]; total concentration in the liver interstitial fluid): 36.2 mL/min
Structure (SMILES): CCOc1ccc(C[C@@H](CN(CCN(CC(=O)[O-])CC(=O)[O-])CC(=O)[O-])N(CC(=O)[O-])CC(=O)[O-])cc1.[Gd+3].[H+].[H+] [gadoxetate, Gadoxetate]
hepatic extraction [3]: approx. 20%
